Experimental data taken from US9394297B2, “Amides as pim inhibitors” (AMGEN INC., priority 2012, dated 2016).
Like-named read-outs stand apart in the source and are kept apart here.

What was measured:
Pim-1 = Pim-1 (Homo sapiens (Human), UniProt P11309); test: Pim-Mn enzyme assay (HTRF, 384-well), Pim-1; type: biochemical; details: read-out: Pim-1-Mn IC50 IP
Pim-2 = Pim-2 (Homo sapiens (Human), UniProt Q9P1W9); test: Pim-Mn enzyme assay (HTRF, 384-well), Pim-2; type: biochemical; details: read-out: Pim-2-Mn IC50 IP
Sequence of Pim-2 (Q9P1W9 whole entry): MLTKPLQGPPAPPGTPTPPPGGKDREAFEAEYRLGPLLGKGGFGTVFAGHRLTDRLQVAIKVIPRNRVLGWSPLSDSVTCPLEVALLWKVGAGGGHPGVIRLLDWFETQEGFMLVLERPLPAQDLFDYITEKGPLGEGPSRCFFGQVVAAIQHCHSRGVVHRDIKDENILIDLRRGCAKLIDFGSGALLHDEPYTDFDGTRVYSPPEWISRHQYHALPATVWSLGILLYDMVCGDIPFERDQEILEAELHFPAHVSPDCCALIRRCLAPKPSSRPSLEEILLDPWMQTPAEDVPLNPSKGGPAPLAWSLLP

KMS-12-BM cell lines = test: KMS12 #2 flow cytometry assay (phospho-BAD Ser112); type: cell-based; details: Homo sapiens, 110 min; KMS-12-BM cells, pBAD Ser112 by flow cytometry, 110 min with compound; read-out: KMS-12-Flow IC50 IP
[1] = Pim-1 enzyme 5 pM, ATP 1.5 μM, BAD (S112) 0.5 μM, HTRF, 22-point curve
[2] = Pim-2 enzyme 0.5 pM, ATP 1.5 μM, BAD (S112) 0.5 μM, HTRF, 22-point curve

Sequence of Pim-1 (P11309 whole entry): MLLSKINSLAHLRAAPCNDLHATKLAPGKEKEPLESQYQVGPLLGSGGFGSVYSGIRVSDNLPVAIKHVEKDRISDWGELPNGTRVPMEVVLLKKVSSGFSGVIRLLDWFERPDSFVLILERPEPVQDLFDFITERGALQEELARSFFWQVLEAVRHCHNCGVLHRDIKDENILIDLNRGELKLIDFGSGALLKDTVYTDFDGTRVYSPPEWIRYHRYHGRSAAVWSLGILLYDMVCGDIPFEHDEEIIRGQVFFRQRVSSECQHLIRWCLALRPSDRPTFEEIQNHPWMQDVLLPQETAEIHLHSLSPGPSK

Row | SMILES | IC50 (Pim-1; [1]) [nM] | IC50 (Pim-2; [2]) [nM] | IC50 (KMS-12-BM cell lines) [nM] | IC50 (Pim-1) [nM] | IC50 (Pim-2) [nM]
1 | C[C@H](O)c1nc2cccc(-c3cc4c([nH]3)CCNC4=O)c2nc1NC(C)(C)C [Example 310, (S)-2-(3-(tert-butylamino)-2-(1-hydroxyethyl)quinoxalin-5-yl)-6,7-dihydro-1H-pyrrolo[3,2-c]pyridin-4(5H)-one] | 4 | 3 | 344 |  | 
2 | C[C@H]1NC(=O)c2cc(-c3cccc4c(=O)n(C)c(OC5(C)CC5)nc34)[nH]c21 [Example 460, 3-methyl-2-((1-methylcyclopropyl)oxy)-8-((6R)-6-methyl-4-oxo-1,4,5,6-tetrahydropyrrolo[3,4-b]pyrrol-2-yl)-4(3H)-quinazolinone] | 0.554 | 1.01 | 94 |  | 
3 | Cc1nc2ccc(F)c(-c3cc4c([nH]3)[C@H](C)NC4=O)c2nc1NC1CC1 [Example 285, (S)-2-(3-(cyclopropylamino)-6-fluoro-2-methylquinoxalin-5-yl)-6-methyl-5,6-dihydropyrrolo[3,4-b]pyrrol-4(1H)-one] | 0.534 | 0.902 | 51.8 |  | 
4 | CC(C)(C)Nc1nc2c(-c3cc4c([nH]3)CCNC4=O)cccc2nc1N1CC(O)C1 [Example 346, 2-(3-(tert-butylamino)-2-(3-hydroxy-1-azetidinyl)-5-quinoxalinyl)-1,5,6,7-tetrahydro-4H-pyrrolo[3,2-c]pyridin-4-one] | 4.07 | 10.8 | 1120 |  | 
5 | Cc1nc2cccc(-c3cc4c([nH]3)CCNC4=S)c2nc1NC(C)(C)C [Example 292, 2-(3-(tert-butylamino)-2-methylquinoxalin-5-yl)-6,7-dihydro-1H-pyrrolo[3,2-c]pyridine-4(5H)-thione] | 1.61 | 2.54 | 657 |  | 
6 | Cc1nc2cccc(-c3cc4c([nH]3)CCNC4=O)c2nc1-c1ccccn1 [Example 429, 2-(2-Methyl-3-(pyridin-2-yl)quinoxalin-5-yl)-6,7-dihydro-1H-pyrrolo[3,2-c]pyridin-4(5H)-one] | 212 | 167 | 8730 |  | 
7 | COCCn1c(NC(C)(C)C)nc2c(-c3cc4c([nH]3)CNC4=O)cccc2c1=O [Example 458, 2-(tert-butylamino)-3-(2-methoxyethyl)-8-(4-oxo-1,4,5,6-tetrahydropyrrolo[3,4-b]pyrrol-2-yl)-4(3H)-quinazolinone] | 0.325 | 0.218 | 54.6 |  | 
8 | Cc1nc2cccc(-c3cc4c([nH]3)CCN(C(=O)OC(C)(C)C)C4=O)c2nc1NC(C)(C)C [Example 291, tert-butyl 2-(3-(tert-butylamino)-2-methylquinoxalin-5-yl)-4-oxo-6,7-dihydro-1H-pyrrolo[3,2-c]pyridine-5(4H)-carboxylate] | 99 | 65.2 | 7920 |  | 
9 | Cc1nc2ccc(F)c(-c3cc4c([nH]3)CCNC4=O)c2nc1NC1(C)CCC1 [Example 376, 2-(6-fluoro-2-methyl-3-((1-methylcyclobutyl)amino)quinoxalin-5-yl)-6,7-dihydro-1H-pyrrolo[3,2-c]pyridin-4(5H)-one] | 0.191 | 0.136 | 37.6 |  | 
10 | Cc1nc2cccc(-c3cc4c([nH]3)[C@H](C)NC4=O)c2nc1NCC(F)(F)F [Example 293, (6S)-6-methyl-2-(2-methyl-3-((2,2,2-trifluoroethyl)amino)-5-quinoxalinyl)-5,6-dihydropyrrolo[3,4-b]pyrrol-4(1H)-one] | 6.37 | 6.02 | 410 |  | 
11 | Cc1nc2ccc(F)c(-c3cc4c([nH]3)C3(CC3)NC4=O)c2nc1NC(C)C [Example 330, 2′-(6-Fluoro-3-(isopropylamino)-2-methylquinoxalin-5-yl)-1′H-spiro[cyclopropane-1,6′-pyrrolo[3,4-b]pyrrol]-4′(5′H)-one] | 0.724 | 1.17 | 85.6 |  | 
12 | Cc1nc2cccc(-c3cc4c([nH]3)C3(CC3)NC4=O)c2nc1NCC(F)(F)F [Example 381, 2′-(2-methyl-3-((2,2,2-trifluoroethyl)amino)quinoxalin-5-yl)-1′H-spiro[cyclopropane-1,6′-pyrrolo[3,4-b]pyrrol]-4′(5′H)-one] |  |  | 215 | 1.6 | 1.36
13 | Cc1nc2cccc(-c3cc4c([nH]3)CCNC4=O)c2nc1NC(C)(C)CN1CCOCC1 [Example 457, 2-(3-((1,1-dimethyl-2-(4-morpholinyl)ethyl)amino)-2-methyl-5-quinoxalinyl)-1,5,6,7-tetrahydro-4H-pyrrolo[3,2-c]pyridin-4-one] | 35.7 | 134 | 3490 |  | 
14 | Cc1nc2cccc(-c3cc4c([nH]3)CCNC4=O)c2nc1-c1ccccc1F [Example 428, 2-(3-(2-Fluorophenyl)-2-methylquinoxalin-5-yl)-6,7-dihydro-1H-pyrrolo[3,2-c]pyridin-4(5H)-one] | 39.9 | 47.4 | > 40000 |  | 
15 | CC(C)(C)Nc1nc2c(-c3cc4c([nH]3)CCNC4=O)cccc2nc1C#N [Example 309, 3-(tert-butylamino)-5-(4-oxo-4,5,6,7-tetrahydro-1H-pyrrolo[3,2-c]pyridin-2-yl)quinoxaline-2-carbonitrile] | 3.55 | 3.76 | 1160 |  | 
16 | Cc1nc2cccc(-c3cc4c(=O)[nH]nc(C)c4[nH]3)c2nc1NC(C)(C)C [Example 416, 2-(3-(tert-butylamino)-2-methylquinoxalin-5-yl)-7-methyl-1H-pyrrolo[2,3-d]pyridazin-4(5H)-one] |  |  | 2950 | 7.63 | 15.8
17 | CNc1nc2cccc(-c3cc4c([nH]3)CCNC4=O)c2nc1NC(C)(C)C [Example 344, 2-(3-(tert-butylamino)-2-(methylamino)-5-quinoxalinyl)-1,5,6,7-tetrahydro-4H-pyrrolo[3,2-c]pyridin-4-one] | 1.19 | 5.61 | 202 |  | 
18 | CC(C)Nc1nc2c(-c3cc4c([nH]3)CCNC4=O)cccc2c(=O)n1-c1ccccc1 [Example 402, 2-((1-methylethyl)amino)-8-(4-oxo-4,5,6,7-tetrahydro-1H-pyrrolo[3,2-c]pyridin-2-yl)-3-phenyl-4(3H)-quinazolinone] | 5.91 | 5.87 | 590 |  | 
19 | Cc1nc2cccc(-c3cc4c([nH]3)CCNC4=O)c2nc1NC(C)c1ccncn1 (stereo not drawn) [Example 323, 2-(2-methyl-3-((1-(pyrimidin-4-yl)ethyl)amino)quinoxalin-5-yl)-6,7-dihydro-1H-pyrrolo[3,2-c]pyridin-4(5H)-one] | 83.8 | 62.7 | > 20000 |  | 
20 | Cc1nc2cccc(-c3cc4c([nH]3)C3(CCOCC3)NC4=O)c2nc1NC(C)(C)C [Example 409, 2′-(3-(tert-butylamino)-2-methyl-5-quinoxalinyl)-2,3,5,6-tetrahydro-1′H-spiro[pyran-4,6′-pyrrolo[3,4-b]pyrrol]-4′(5′H)-one] | 31.7 | 62.6 | 5760 |  | 
21 | Cc1nc2cccc(-c3cc4c([nH]3)CCNC4=O)c2nc1-c1ccoc1C [Example 433, 2-(2-Methyl-3-(2-methylfuran-3-yl)quinoxalin-5-yl)-6,7-dihydro-1H-pyrrolo[3,2-c]pyridin-4(5H)-one] | 30.9 | 40.9 | 8400 |  | 
22 | Cc1nc2ccc(F)c(-c3cc4c([nH]3)C3(CC3)NC4=O)c2nc1NC(C)(C)C [Example 295, 2′-(3-(tert-butylamino)-6-fluoro-2-methylquinoxalin-5-yl)-1′H-spiro[cyclopropane-1,6′-pyrrolo[3,4-b]pyrrol]-4′(5′H)-one] |  | 0.52 | 41 | 0.562 | 
23 | Cc1nc2cccc(-c3cc4c([nH]3)CCNC4=O)c2nc1-c1ccncc1Cl [Example 411, 2-(3-(3-chloro-4-pyridinyl)-2-methyl-5-quinoxalinyl)-1,5,6,7-tetrahydro-4H-pyrrolo[3,2-c]pyridin-4-one] | 66.5 | 239 | > 40000 |  | 
24 | Cc1nc2cccc(-c3cc4c([nH]3)[C@@H](CO)NC4=O)c2nc1NC1CC1 [Example 366, (S)-2-(3-(cyclopropylamino)-2-methylquinoxalin-5-yl)-6-(hydroxymethyl)-5,6-dihydropyrrolo[3,4-b]pyrrol-4(1H)-one] | 0.192 | 0.177 | 79.4 |  | 
25 | CC(C)(C)Nc1nc2c(-c3cc4c([nH]3)CCNC4=O)cccc2c(=O)n1-c1cccnc1 [Example 404, 2-(tert-butylamino)-8-(4-oxo-4,5,6,7-tetrahydro-1H-pyrrolo[3,2-c]pyridin-2-yl)-3-(3-pyridinyl)-4(3H)-quinazolinone] | 1.5 | 2.6 | 659 |  | 
26 | Cc1nc2cccc(-c3cc4c([nH]3)CCNC4=O)c2nc1NC(C)c1cnccn1 (stereo not drawn) [Example 322, 2-(2-methyl-3-((1-(pyrazin-2-yl)ethyl)amino)quinoxalin-5-yl)-6,7-dihydro-1H-pyrrolo[3,2-c]pyridin-4(5H)-one] | 94.6 | 163 | > 40000 |  | 
27 | Cc1nc2cccc(-c3cc4c([nH]3)CCNC4=O)c2nc1NC(=O)C1CC1 [Example 446, N-(3-methyl-8-(4-oxo-4,5,6,7-tetrahydro-1H-pyrrolo[3,2-c]pyridin-2-yl)quinoxalin-2-yl)cyclopropanecarboxamide] | 145 | 131 | > 40000 |  | 
28 | Cc1nc2ccnc(-c3cc4c([nH]3)CCNC4=O)c2nc1NC(C)(C)C [Example 368, 2-(3-(tert-butylamino)-2-methylpyrido[3,4-b]pyrazin-5-yl)-6,7-dihydro-1H-pyrrolo[3,2-c]pyridin-4(5H)-one] | 30.8 | 33.7 | 13300 |  | 
